The target of this assay is Bruton's tyrosine kinase (BTK) (Mus musculus, UniProt P35991). Briefly: PROTAC degradation of BTK in mouse tissues in vivo, immunoblot. Type of assay: cell-based.

1 molecule from PMC6361926, “A chemical approach for global protein knockdown from mice to non-human primates” (Cell Discovery, 2019) can be followed below.

Sequence of Bruton's tyrosine kinase (BTK) (P35991 2-659): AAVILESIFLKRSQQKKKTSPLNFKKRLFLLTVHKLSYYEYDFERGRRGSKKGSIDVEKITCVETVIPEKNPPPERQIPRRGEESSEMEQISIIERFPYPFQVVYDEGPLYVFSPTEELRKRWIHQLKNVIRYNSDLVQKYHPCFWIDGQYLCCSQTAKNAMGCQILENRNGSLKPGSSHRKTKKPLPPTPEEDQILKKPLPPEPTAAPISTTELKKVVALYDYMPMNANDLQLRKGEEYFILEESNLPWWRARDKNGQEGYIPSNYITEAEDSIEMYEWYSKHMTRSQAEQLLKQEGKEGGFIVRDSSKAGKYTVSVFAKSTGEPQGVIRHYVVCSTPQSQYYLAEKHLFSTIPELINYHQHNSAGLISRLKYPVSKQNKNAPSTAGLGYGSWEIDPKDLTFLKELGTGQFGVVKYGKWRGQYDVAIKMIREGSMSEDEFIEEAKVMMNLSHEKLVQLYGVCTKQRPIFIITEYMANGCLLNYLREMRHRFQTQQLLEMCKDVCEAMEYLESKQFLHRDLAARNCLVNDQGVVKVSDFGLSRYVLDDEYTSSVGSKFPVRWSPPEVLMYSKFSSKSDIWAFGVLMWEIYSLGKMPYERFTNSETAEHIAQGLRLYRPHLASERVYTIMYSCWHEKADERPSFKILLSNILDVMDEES

Turning to `Nc1ncnc2c1c(-c1ccc(Oc3ccccc3)cc1)nn2[C@@H]1CCCN(C(=O)CCCc2cn(CCOCCOCCNc3cccc4c3C(=O)N(C3CCC(=O)NC3=O)C4=O)nn2)C1` (stereo partly shown) [P13IS], the “PROTAC degradation of BTK in mouse tissues in vivo, immunoblot” value was “BTK in adipose, thymus, abdominal lymph node, and axillary lymph node was degraded efficiently”.
